The data set in a line: physchem. To be noted: human.

A word on the pKa: it is the pH at which an ionisable group is half protonated. As to `COc1ccc([C@H](N[C@@H]2CC[C@@H](C(=O)N3CCC(C(=O)N4CCCC4)(c4ccccc4)CC3)C(C)(C)C2)C(F)(F)F)cc1`, the pKa is 4.24.
The figure for `COc1ccc([C@@H](C)N[C@@H]2CC[C@@H](C(=O)N3CCC(C(=O)N4CCCC4)(c4ccccc4)CC3)C(C)(C)C2)cc1` is 10.2.

The values are drawn from ChEMBL document CHEMBL1153458, “Design, synthesis and evaluation of a novel cyclohexanamine class of neuropeptide Y Y1 receptor antagonists” (Bioorg Med Chem Lett, 2009).
